The results in this text go back to article PMC7891696, “The molecular targets of ivermectin and lotilaner in the human louse Pediculus humanus humanus: New prospects for the treatment of pediculosis” (PLoS Pathogens, 2021).

Experiment [1] deals with T1, Phh-RDL (Pediculus humanus humanus, UniProt A0A894T8E6). Briefly: Two-electrode voltage-clamp on Xenopus laevis oocytes expressing Phh-RDL. The experiment is classed as cell-based. To be noted: for concentration at which GABA-elicited currents were completely inhibited: 100 μM GABA. The method, then: (§1) Defolliculated Xenopus laevis oocytes were purchased from Ecocyte Bioscience and maintained in incubation solution (100 mM NaCl, 2 mM KCl, 1.8 mM CaCl2.2H2O, 1 mM MgCl2.6H2O, 5 mM HEPES, 2.5 mM C3H3NaO3, pH 7.5 supplemented with penicillin 100 U/mL and streptomycin 100 μg/mL) at 19°C. Each oocyte was microinjected with 57 ng of cRNA encoding Phh-GluCl or Phh-RDL using a Drummond nanoject II microinjector. Three to five days after cRNA injection, two-electrode voltage-clamp recordings were performed with an oocyte clamp OC-725C amplifier (Warner instrument) at a holding potential of -80mV or -60 mV to assess the expression of the GluCl or RDL channels. Currents were recorded and analyzed using the pCLAMP 10.4 package (Molecular Devices). Concentration-response relationships for agonists were carried out by challenging oocytes with 10 s applications of increasing concentrations of compounds. […] For Phh-GluCl, the dose-response relationship for ivermectin was performed by applying each concentration of ivermectin for 20–30 s. Each oocyte received only one ivermectin concentration (≤ 30 nM) followed with a high ivermectin concentration (≥ 100 nM). Data were normalized to a first 100 μM glutamate apllication. […] Concentration-response curves for agonists were fitted with the following equation: Y=100/1+10^H(logEC50−X)
Where Y is the normalized response, H is the Hill slope and X is the logarithm of concentration. The same equation was used for the concentration-response curves for antagonists by replacing logEC50 by logIC50. Results are expressed as mean +/- SEM and statistical analysis were performed using One-Way ANOVA with Tukey’s Multiple Comparisons Test. […] The corresponding concentration response curves were fitted using the following four parameter Hill equation: Y=Bottom+(Top−Bottom)/1+10^H(LogEC50−X)

The subject of experiment [2] is human adult body lice (Pediculus humanus humanus). Briefly: Toxicity bioassay on adult human body lice (filter paper contact, survival and immobilization). The experiment is classed as in vivo. Particulars: for lice killed or immobilized (death or knockdown rate): adult lice n = 44. As to the method: (§2) The colony of human body lice (Pediculus humanus humanus) were provided by Kosta Y. Mumcuoglu from the Kuvin Center for the Study of Infectious and Tropical Diseases, Hebrew University-Hadassah Medical School, Jerusalem, Israel. This laboratory-reared colony adapted to rabbit blood were fed four times per week for 20–30 min on rabbits and maintained at 30 ± 1°C and 60–70% relative humidity without exposure to any drugs. […] Nits (50 to 190 per condition) were incubated with lotilaner or ivermectin and hatching was monitored between six and nine days. Water and solution of 1% DMSO were used as negative controls. Pictures were recorded with a Motic Digital Microscope 143 Series and the Motic Image Plus 3.0 software.

Experiment [3] has as its target Phh-GluCl (Pediculus humanus humanus, UniProt A0A894TL71). Kind of experiment: Two-electrode voltage-clamp on Xenopus laevis oocytes expressing Phh-GluCl. The experiment is classed as cell-based. The method, then: as §1
In general terms: Two-electrode voltage clamp is typically applied to oocytes expressing channels or transporters.

For experiment [4], the system named is nits of human body lice. Kind of experiment: Nit hatching test. The experiment is classed as in vivo, Pediculus humanus humanus. To be noted: 100 μM, hatching between six and nine days after application, compared with water and 1% DMSO. As to the method:
as §2

For experiment [5], the target named is T1, Phh-RDL. Kind of experiment: Two-electrode voltage-clamp on Xenopus laevis oocytes expressing Phh-RDL. It counts as cell-based. To be noted: 1 μM ivermectin, 90 s application.
Setting [6] is: antagonism of 100 μM GABA current, 90 s preincubation, read-out: IC50.

Where two headings read alike, the source gives them in different places.

T1 sequence (A0A894T8E6 entry or part of it): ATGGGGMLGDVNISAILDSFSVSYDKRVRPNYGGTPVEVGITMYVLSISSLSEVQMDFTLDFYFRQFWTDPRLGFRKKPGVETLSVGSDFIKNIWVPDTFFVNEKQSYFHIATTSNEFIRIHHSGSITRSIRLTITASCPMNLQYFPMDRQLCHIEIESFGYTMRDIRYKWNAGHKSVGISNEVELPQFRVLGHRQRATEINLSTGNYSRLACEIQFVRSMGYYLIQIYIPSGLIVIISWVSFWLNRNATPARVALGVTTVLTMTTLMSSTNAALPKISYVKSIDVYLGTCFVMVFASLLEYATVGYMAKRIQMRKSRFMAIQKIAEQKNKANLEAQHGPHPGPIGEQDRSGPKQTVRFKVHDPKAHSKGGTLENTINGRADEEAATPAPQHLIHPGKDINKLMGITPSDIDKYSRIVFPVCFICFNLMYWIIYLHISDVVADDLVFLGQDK
Sequence of Phh-GluCl (A0A894TL71 entry or part of it): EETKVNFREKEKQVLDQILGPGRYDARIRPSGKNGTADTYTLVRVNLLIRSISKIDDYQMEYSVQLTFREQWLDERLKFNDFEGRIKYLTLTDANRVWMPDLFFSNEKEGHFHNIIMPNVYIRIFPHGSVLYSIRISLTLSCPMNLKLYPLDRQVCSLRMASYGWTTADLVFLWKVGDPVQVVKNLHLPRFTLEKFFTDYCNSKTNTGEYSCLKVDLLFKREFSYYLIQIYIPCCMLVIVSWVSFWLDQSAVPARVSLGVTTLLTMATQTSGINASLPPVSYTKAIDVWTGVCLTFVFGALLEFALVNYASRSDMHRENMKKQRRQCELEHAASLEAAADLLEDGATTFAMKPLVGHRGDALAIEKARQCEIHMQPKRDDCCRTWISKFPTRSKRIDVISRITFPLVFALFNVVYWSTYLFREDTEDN

As a reminder, the EC50 is the concentration that produces a half-maximal response. As to `NCCCC(=O)O` [GABA, γ-aminobutyric acid], in experiment [1], the midpoint of the response, the EC50, lay at 16 µM. In experiment [1] (GABA concentration-response curve), the Hill coefficient is given as 2.3 +/- 0.1. Besides, the Emax in experiment [1] (read-out: maximum current amplitude) is 97.95 ± 0.69%.
As a reminder, the IC50 is the concentration that gives 50% inhibition. Turning to `N#Cc1nn(-c2c(Cl)cc(C(F)(F)F)cc2Cl)c(N)c1[S+]([O-])C(F)(F)F` (stereo not drawn) [fipronil], in experiment [1], the concentration for half-maximal inhibition (IC50) was found to be 0.138 ± 0.0351 µM and the agonist effect result is “no agonist effect”. For the same molecule, the “lice killed or immobilized (death or knockdown rate)” value (shortened to “lice killed or immobilized”) in experiment [2] (100 μM, 24 h) was 91%.
`N[C@@H](CCC(=O)O)C(=O)O` [glutamate]: the midpoint of the response in experiment [3], the EC50, lay at 9.3 µM. The Hill coefficient in experiment [3] (glutamate concentration-response curve) is 1.9 +/- 0.5.
Consider `Cc1cc(C2=NO[C@@](c3cc(Cl)c(Cl)c(Cl)c3)(C(F)(F)F)C2)sc1C(=O)NCC(=O)NCC(F)(F)F` [lotilaner], for which, in experiment [1], the agonist effect result is “no agonist effect”. The type of inhibition entry in experiment [1] (competitive assay, GABA dose-response with 1 nM and 10 nM lotilaner) was “non-competitive antagonist”. The half-inhibitory concentration (IC50) in experiment [1] (read-out: IC50) amounted to 0.0407 µM. Also, in experiment [3] (30 μM), the “concentration without effect on Phh-GluCl (30 μM) as multiple of the IC50 for Phh-RDL” value was determined as 737 fold. The “agonist effect (current elicited)” value in experiment [3] (1 to 30 μM) is given as “did not elicit any current”. Further, the “inhibitory effect on glutamate-evoked currents” value in experiment [3] (1 to 30 μM, co-application with 100 μM glutamate) was “no significant inhibitory effect”. The same molecule registered a lice killed in experiment [2] (1 μM, 24 h, adult lice) of 14%. Besides, the “death rate of lice” value in experiment [2] (100 μM, 3 h, adult lice) is given as “death of all lice”. In addition, the “effect on nit hatching” value in experiment [4] was “absence of efficacy”.
Take ivermectin: in experiment [5], the “maximum agonist effect as % of the 1 mM response” value is given as 7.9 +/- 1.3%. In experiment [1], the “IC50 on RDL receptor relative to EC50 for Phh-GluCl” value stood at 4 fold and the “concentration at which GABA-elicited currents were completely inhibited” value stood at 3 µM. Further, the “effect on GABA current at low concentration (potentiation)” value in experiment [1] (100 nM ivermectin coapplied with 3 μM GABA) is recorded as “increased the current amplitude”. The “mode of action at higher concentration” value in experiment [1] (1 μM ivermectin) was “both an agonistic and antagonistic effect”. For the same molecule, in experiment [1] (0.3 to 30 μM, 90 seconds), the “reversibility of the currents elicited” value is “not reversible”. In experiment [1] (setting [6]), the IC50 came to 0.343 ± 0.014 µM. For the same molecule, in experiment [3], the “lowest concentration at which slow activation of the receptor was observed” value amounted to 10 nM and the “reversibility of the agonist effect” value was “not reversible”. Besides, the “current as % of the 1 mM glutamate-elicited current” value in experiment [3] (1 μM ivermectin) is recorded as 86.5 +/- 8.2%. Further, the EC50 in experiment [3] (agonist, normalized to a first 100 μM glutamate application, read-out: EC50) came to 0.0785 ± 0.0302 µM. The “death rate of lice” value in experiment [2] (10 μM, 24 h, adult lice) turned out to be 100%. For the same molecule, the “death rate of lice” value in experiment [2] (100 μM, 3 h, adult lice) stood at 30%. Also, in experiment [2] (100 μM, 24 h), the “lice killed or immobilized” value is listed as 100%. For the same molecule, in experiment [4], the “effect on nit hatching” value is “absence of efficacy”.
As to picrotoxin, in experiment [1], the agonist effect entry is “no agonist effect” and the “concentration at which GABA-elicited currents were completely inhibited” value stood at 30 µM. Besides, the IC50 in experiment [1] (setting [6]) is 1.16 ± 0.23 µM. Further, the “lice killed or immobilized” value in experiment [2] (100 μM, 24 h) is reported as “not efficient to kill the lice”.
